Experimental findings from patent US20200179428A1, “CYCLIC PHOSPHATE SUBSTITUTED NUCLEOSIDE DERIVATIVES AND METHODS OF USE THEREOF FOR THE TREATMENT OF VIRAL DISEASES” (priority 2016, published 2020) are described below.

Holding throughout (format): cell-based
For one series, the system named is replicon cells (1b-Con1). Kind of series: Replicon activity assay (replicon RNA level by real-time RT-PCR, Taqman). The note with it: HCV replicon genotype 1b, read-out: EC50 (1b) Range. The method in brief:
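HCV 1b-Con1 replicon cells treated 3 days with 10-point twofold serial dilutions in triplicate (0.5% DMSO, 10% FBS); replicon RNA quantified by Taqman real-time RT-PCR normalised to GAPDH, EC50 derived. Cytotoxicity by MTS read-out at day 3 on identically treated cells.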

In another series the test system is replicon cells. Kind of series: Cytotoxicity MTS assay (CellTiter 96 Aqueous One Solution) in replicon cells. The note with it: EDU; read-out: CC50 (EDU) Range. On the technique in general: Tetrazolium assays rely on reduction of a dye to a coloured formazan, in cell work by metabolically active cells.
Assay in series [1]: as above
The note with it: HCV replicon cells (1b-Con1); EDU; read-out: CC50 (EDU) Range.

Molecules are shown by their SMILES. Read-outs that look alike come from different tables or passages of the source. Where only a bound is given, the exact number is not on record here.

Broadly, the EC50 is the concentration at which the effect is half-maximal. As usually defined, the CC50 is the concentration at which the toxic effect on the cells reaches its halfway point. As for `C#C[C@]1(C)[C@@H]2OP(=O)(OCC(C)CC(=O)OC3CCCC3)OC[C@H]2O[C@H]1n1ccc(=O)[nH]c1=O` (single isomer, unassigned) [Compound 3B], the EC50 in the series with replicon cells (1b-Con1) is at most 0.25 µM. Further, the CC50 with replicon cells was above 50 µM.
On to `CCOC(=O)C(C)CCOP1(=O)OC[C@H]2O[C@@H](n3ccc(=O)[nH]c3=O)[C@](C)(N)[C@@H]2O1` (single isomer, unassigned) [Compound 5B], for which the EC50 in the series on replicon cells (1b-Con1) was above 10 µM. Besides, the CC50 with replicon cells was above 50 µM.
In the same order, the values of `C#C[C@]1(C)[C@@H]2OP(=O)(OCC(C)CC(=O)OC(C)C)OC[C@H]2O[C@H]1n1ccc(=O)[nH]c1=O` (single isomer, unassigned) [Compound 6A1] are above 10 µM and above 50 µM.
The like results for `C#C[C@]1(C)[C@@H]2OP(=O)(OCC(C)CC(=O)OC(C)C)OC[C@H]2O[C@H]1n1ccc(=O)[nH]c1=O` (single isomer, unassigned) [Compound 6A2] were, in that order, above 10 µM and above 50 µM.
The like results for `C#C[C@]1(C)[C@@H]2OP(=O)(OCC(C)CC(=O)OC(C)C)OC[C@H]2O[C@H]1n1ccc(=O)[nH]c1=O` (single isomer, unassigned) [Compound 6B1] were, in that order, 1 to 10 µM and above 50 µM.
Regarding `C#C[C@]1(C)[C@@H]2OP(=O)(OCC(C)CC(=O)OC(C)C)OC[C@H]2O[C@H]1n1ccc(=O)[nH]c1=O` (single isomer, unassigned) [Compound 6B2], in the series with replicon cells (1b-Con1), the EC50 is 1 to 10 µM. Further, in the series on replicon cells, the CC50 was above 50 µM.
In the same order, the values of `C#C[C@@]1(O)[C@@H]2OP(=O)(OCC[C@@H](C)C(=O)OC(C)C)OC[C@H]2O[C@H]1n1ccc(=O)[nH]c1=O` (single isomer, unassigned) [Compound 7B1] are 0.25 to 1 µM and above 50 µM.
In the same order, the values of `C#C[C@@]1(O)[C@@H]2OP(=O)(OCC[C@H](C)C(=O)OC(C)C)OC[C@H]2O[C@H]1n1ccc(=O)[nH]c1=O` (single isomer, unassigned) [Compound 7B2] are 1 to 10 µM and above 50 µM.
In the same order, the values of `C#C[C@@]1(O)[C@@H]2OP(=O)(OCCC(C)C(=O)OC3CCCC3)OC[C@H]2O[C@H]1n1ccc(=O)[nH]c1=O` (single isomer, unassigned) [Compound 8A2] are at most 0.25 µM and above 50 µM.
`C#C[C@@]1(O)[C@@H]2OP(=O)(OCCC(C)C(=O)OC3CCCC3)OC[C@H]2O[C@H]1n1ccc(=O)[nH]c1=O` (single isomer, unassigned) [Compound 8B1]: the EC50 in the series with replicon cells (1b-Con1) is at most 0.25 µM. For the same compound, the CC50 with replicon cells was above 50 µM.
The like results for `C#C[C@@]1(O)[C@@H]2OP(=O)(OCC[C@H](C)C(=O)OC3CCCC3)OC[C@H]2O[C@H]1n1ccc(=O)[nH]c1=O` (single isomer, unassigned) [Compound 8B2] were, in that order, 0.25 to 1 µM and above 50 µM.
In the same order, the values of `C#C[C@@]1(O)[C@@H]2OP(=O)(OCCC(C)C(=O)OC3CCCC3)OC[C@H]2O[C@H]1n1ccc(=O)[nH]c1=O` (single isomer, unassigned) [Compound 8B] are at most 0.25 µM and above 50 µM.
The like results for `CC(C)OC(=O)C(C)CCOP1(=O)OC[C@H]2O[C@@H](n3ccc(=O)[nH]c3=O)[C@](C)(N)[C@@H]2O1` (single isomer, unassigned) [Compound 10A2] were, in that order, above 10 µM and above 50 µM.
Take `C#C[C@]1(C)[C@@H]2O[P@](=O)(OC[C@H](F)CC(=O)OC(C)C)OC[C@H]2O[C@H]1n1ccc(=O)[nH]c1=O` [Compound 66B]: the EC50 with replicon cells (1b-Con1) (Hepatitis C virus) lay in the range of 0.25 to 1 µM. The 50% cytotoxic concentration (CC50) at 3 days in series [1] is above 50 µM.
For `CC(C)OC(=O)C[C@@H](F)CO[P@@]1(=O)OC[C@H]2O[C@@H](n3ccc(=O)[nH]c3=O)[C@](C)(N)[C@@H]2O1` [Compound 67A], the EC50 in the series with replicon cells (1b-Con1) (Hepatitis C virus) is above 10 µM. In series [1], the CC50 at 3 days was above 50 µM.
In the same order, the values of `C#C[C@]1(C)[C@@H]2O[P@@](=O)(OCCOCC(=O)OC(C)C)OC[C@H]2O[C@H]1n1ccc(=O)[nH]c1=O` [Compound 68A] are above 10 µM and above 50 µM.
The like results for `C#C[C@]1(C)[C@@H]2O[P@](=O)(OCCOCC(=O)OC(C)C)OC[C@H]2O[C@H]1n1ccc(=O)[nH]c1=O` [Compound 68B] were, in that order, 1 to 10 µM and above 50 µM.
In the same order, the values of `CC(C)OC(=O)COCCO[P@@]1(=O)OC[C@H]2O[C@@H](n3ccc(=O)[nH]c3=O)[C@](C)(N)[C@@H]2O1` [Compound 69A] are above 10 µM and above 50 µM.
With `CC(C)OC(=O)COCCO[P@]1(=O)OC[C@H]2O[C@@H](n3ccc(=O)[nH]c3=O)[C@](C)(N)[C@@H]2O1` [Compound 69B], the EC50 with replicon cells (1b-Con1) (Hepatitis C virus) is above 10 µM. Besides, the CC50 at 3 days in series [1] was above 50 µM.
In the same order, the values of `CC(C)OC(=O)C(CCO[P@@]1(=O)OC[C@H]2O[C@@H](n3cnc4c(N)ncnc43)[C@](C)(Cl)[C@@H]2O1)C(=O)OC(C)C` [Compound 70A] are 0.25 to 1 µM and above 50 µM.
The like results for `CC(C)OC(=O)C(CCO[P@]1(=O)OC[C@H]2O[C@@H](n3cnc4c(N)ncnc43)[C@](C)(Cl)[C@@H]2O1)C(=O)OC(C)C` [Compound 70B] were, in that order, 1 to 10 µM and above 50 µM.
As for `CC(C)OC(=O)[C@@H](C)CCO[P@@]1(=O)OC[C@H]2O[C@@H](n3cnc4c(N)ncnc43)[C@](C)(C#N)[C@@H]2O1` [Compound 71A], in the series on replicon cells (1b-Con1) (Hepatitis C virus), the EC50 was above 10 µM. For the same compound, the CC50 at 3 days in series [1] is above 50 µM.
In the same order, the values of `CC(C)OC(=O)[C@@H](C)CCO[P@]1(=O)OC[C@H]2O[C@@H](n3cnc4c(N)ncnc43)[C@](C)(C#N)[C@@H]2O1` [Compound 71B] are 1 to 10 µM and above 50 µM.
The like results for `C#C[C@]1(C)[C@@H]2O[P@@](=O)(OCC[C@H](C)C(=O)OC(C)C)OC[C@H]2O[C@H]1n1cnc2c(N)ncnc21` [Compound 72A] were, in that order, above 10 µM and above 50 µM.
Regarding `C#C[C@]1(C)[C@@H]2O[P@](=O)(OCC[C@H](C)C(=O)OC(C)C)OC[C@H]2O[C@H]1n1cnc2c(N)ncnc21` [Compound 72B], the EC50 with replicon cells (1b-Con1) (Hepatitis C virus) lay in the range of 0.25 to 1 µM. For the same compound, the CC50 at 3 days in series [1] is above 50 µM.
`CC(C)OC(=O)[C@@H](C)CCO[P@@]1(=O)OC[C@H]2O[C@@H](n3cnc4c(N)ncnc43)[C@](C)(N)[C@@H]2O1` [Compound 73A]: in the series with replicon cells (1b-Con1) (Hepatitis C virus), the EC50 was above 10 µM. Besides, the CC50 at 3 days in series [1] was above 50 µM.
In the same order, the values of `CC(C)OC(=O)[C@@H](C)CCO[P@]1(=O)OC[C@H]2O[C@@H](n3cnc4c(N)ncnc43)[C@](C)(N)[C@@H]2O1` [Compound 73B] are 1 to 10 µM and above 50 µM.
Turning to `C#C[C@]1(C)[C@@H]2O[P@@](=O)(OCC(CC(=O)OC(C)C)N(C)C(=O)OC(C)(C)C)OC[C@H]2O[C@H]1n1ccc(=O)[nH]c1=O` (stereo partly shown) [Compound 74A1], in the series on replicon cells (1b-Con1) (Hepatitis C virus), the EC50 was above 10 µM. The cytotoxic concentration (CC50) at 3 days in series [1] was above 50 µM.
In the same order, the values of `C#C[C@]1(C)[C@@H]2O[P@](=O)(OCC(CC(=O)OC(C)C)N(C)C(=O)OC(C)(C)C)OC[C@H]2O[C@H]1n1ccc(=O)[nH]c1=O` (stereo partly shown) [Compound 74B] are above 10 µM and above 50 µM.
In the same order, the values of `C#C[C@@]1(O)[C@@H]2OP(=O)(OCC[C@@H](OC)C(=O)OC(C)C)OC[C@H]2O[C@H]1n1ccc(=O)[nH]c1=O` (stereo partly shown) [Compound 76] are at most 0.25 µM and above 50 µM.
The like results for `C#C[C@]1(C)[C@@H]2O[P@@](=O)(OCCC(C)C(=O)OC3CCCCC3)OC[C@H]2O[C@H]1n1ccc(=O)[nH]c1=O` (stereo partly shown) [Compound 77A] were, in that order, 1 to 10 µM and above 50 µM.
On to `C#C[C@]1(C)[C@@H]2O[P@](=O)(OCCC(C)C(=O)OC3CCCCC3)OC[C@H]2O[C@H]1n1ccc(=O)[nH]c1=O` (stereo partly shown) [Compound 77B], for which the EC50 in the series on replicon cells (1b-Con1) (Hepatitis C virus) is at most 0.25 µM. For the same compound, the CC50 at 3 days in series [1] was above 50 µM.
As to `CC(CCO[P@@]1(=O)OC[C@H]2O[C@@H](n3ccc(=O)[nH]c3=O)[C@](C)(N)[C@@H]2O1)C(=O)OC1CCCCC1` (stereo partly shown) [Compound 78A], the EC50 with replicon cells (1b-Con1) (Hepatitis C virus) was above 10 µM. Moreover, the CC50 at 3 days in series [1] is above 50 µM.
For `CC(CCO[P@]1(=O)OC[C@H]2O[C@@H](n3ccc(=O)[nH]c3=O)[C@](C)(N)[C@@H]2O1)C(=O)OC1CCCCC1` (stereo partly shown) [Compound 78B], the EC50 in the series with replicon cells (1b-Con1) (Hepatitis C virus) was 1 to 10 µM. Also, the CC50 at 3 days in series [1] is above 50 µM.
The like results for `CCCCCOC(=O)C(C)CCO[P@@]1(=O)OC[C@H]2O[C@@H](n3ccc(=O)[nH]c3=O)[C@](C)(N)[C@@H]2O1` (stereo partly shown) [Compound 79A] were, in that order, 1 to 10 µM and above 50 µM.
In the same order, the values of `CCCCCOC(=O)C(C)CCO[P@]1(=O)OC[C@H]2O[C@@H](n3ccc(=O)[nH]c3=O)[C@](C)(N)[C@@H]2O1` (stereo partly shown) [Compound 79B] are 1 to 10 µM and above 50 µM.
The like results for `C#C[C@@]1(OC(=O)CCC)[C@@H]2O[P@@](=O)(OCC[C@@H](C)C(=O)OC(C)C)OC[C@H]2O[C@H]1n1ccc(=O)[nH]c1=O` [Compound 83A1] were, in that order, at most 0.25 µM and above 50 µM.
Turning to `C#C[C@@]1(OC(=O)CCCCCC)[C@@H]2O[P@@](=O)(OCC[C@@H](C)C(=O)OC(C)C)OC[C@H]2O[C@H]1n1ccc(=O)[nH]c1=O` [Compound 84A1], the EC50 in the series on replicon cells (1b-Con1) (Hepatitis C virus) was at most 0.25 µM. The CC50 at 3 days in series [1] was above 50 µM.
The like results for `C#C[C@@]1(OC(=O)CCC)[C@@H]2O[P@@](=O)(OCC[C@H](C)C(=O)OC(C)C)OC[C@H]2O[C@H]1n1ccc(=O)[nH]c1=O` [Compound 85A2] were, in that order, at most 0.25 µM and above 50 µM.
Take `CC(C)OC(=O)[C@H](C)CCOP1(=O)OC[C@@]2(F)O[C@@H](n3ccc(=O)[nH]c3=O)[C@](C)(O)[C@@H]2O1` (stereo partly shown) [Compound 86A]: the concentration giving a half-maximal response (EC50) with replicon cells (1b-Con1) (Hepatitis C virus) was in the range of 1 to 10 µM. Also, the 50% cytotoxic concentration (CC50) at 3 days in series [1] is above 50 µM.
In the same order, the values of `CC(C)OC(=O)[C@H](C)CCOP1(=O)OC[C@H]2O[C@@H](n3cnc4c(N)ncnc43)[C@](C)(F)[C@@H]2O1` (stereo partly shown) [Compound 88A] are at most 0.25 µM and above 50 µM.
